One data set has as its target T1, OATP1B3 (Homo sapiens, UniProt Q9NPD5).
T1 construct: gene SLCO1B3; expressed in HEK293 cells
T1 sequence (Q9NPD5 1-702): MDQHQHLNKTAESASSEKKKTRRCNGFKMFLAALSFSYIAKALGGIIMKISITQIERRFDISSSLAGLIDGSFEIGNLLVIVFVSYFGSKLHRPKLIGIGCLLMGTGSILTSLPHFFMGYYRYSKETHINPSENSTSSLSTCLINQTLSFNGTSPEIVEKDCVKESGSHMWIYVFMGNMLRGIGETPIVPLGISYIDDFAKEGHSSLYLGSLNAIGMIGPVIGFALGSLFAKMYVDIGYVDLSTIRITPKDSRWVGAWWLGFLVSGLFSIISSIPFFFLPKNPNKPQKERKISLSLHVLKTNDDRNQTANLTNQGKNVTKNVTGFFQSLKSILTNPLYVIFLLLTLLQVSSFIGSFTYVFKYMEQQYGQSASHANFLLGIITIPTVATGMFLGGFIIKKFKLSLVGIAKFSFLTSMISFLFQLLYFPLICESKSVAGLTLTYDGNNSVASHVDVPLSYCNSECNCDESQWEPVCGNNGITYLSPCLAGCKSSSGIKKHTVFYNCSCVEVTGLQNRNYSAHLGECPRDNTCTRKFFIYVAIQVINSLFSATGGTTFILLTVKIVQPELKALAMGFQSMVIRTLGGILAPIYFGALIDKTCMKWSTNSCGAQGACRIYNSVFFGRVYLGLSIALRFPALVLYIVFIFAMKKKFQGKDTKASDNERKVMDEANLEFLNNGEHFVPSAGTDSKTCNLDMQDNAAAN
Put plainly: uptake inhibition in HEK293 cells expressing the transporter. The class given is cell-based. An excerpt: uptake inhibition in HEK293 cells expressing the transporter on OATP1B3

Another data set has as its target T2, CYP2C19 (Homo sapiens, UniProt P33261).
T2 construct: native enzyme in human liver microsomes
Put plainly: CYP activity inhibition in human liver microsomes. The class given is biochemical. The following applies: read-out: IC50 (μM) / Direct inhibition. An excerpt:
CYP activity inhibition in human liver microsomes on CYP2C19

A further data set deals with T3, CYP2C9 (Homo sapiens, UniProt P11712).
T3 construct: native enzyme in human liver microsomes
T3 sequence (P11712 whole entry): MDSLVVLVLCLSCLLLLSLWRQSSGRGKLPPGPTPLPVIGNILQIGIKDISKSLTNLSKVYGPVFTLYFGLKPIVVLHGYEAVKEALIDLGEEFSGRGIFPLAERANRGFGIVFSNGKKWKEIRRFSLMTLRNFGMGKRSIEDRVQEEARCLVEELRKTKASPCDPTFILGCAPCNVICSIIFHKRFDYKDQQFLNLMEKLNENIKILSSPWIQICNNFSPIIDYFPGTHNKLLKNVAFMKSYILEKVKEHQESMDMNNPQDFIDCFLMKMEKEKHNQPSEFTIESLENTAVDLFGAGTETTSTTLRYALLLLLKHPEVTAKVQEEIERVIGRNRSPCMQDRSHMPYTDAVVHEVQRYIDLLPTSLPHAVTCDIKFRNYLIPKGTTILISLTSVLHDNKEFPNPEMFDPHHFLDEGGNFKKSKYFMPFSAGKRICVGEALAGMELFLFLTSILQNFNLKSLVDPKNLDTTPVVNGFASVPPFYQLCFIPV
Put plainly: CYP activity inhibition in human liver microsomes. The class given is biochemical. An excerpt:
CYP activity inhibition in human liver microsomes on CYP2C9
(In general: Liver microsomes are vesicles of endoplasmic reticulum, rich in cytochrome P450 enzymes.)

The target of a further data set is T4, OAT3 (Homo sapiens, UniProt Q8TCC7).
T4 construct: gene SLC22A8; expressed in HEK293 cells
T4 sequence (Q8TCC7 1-542): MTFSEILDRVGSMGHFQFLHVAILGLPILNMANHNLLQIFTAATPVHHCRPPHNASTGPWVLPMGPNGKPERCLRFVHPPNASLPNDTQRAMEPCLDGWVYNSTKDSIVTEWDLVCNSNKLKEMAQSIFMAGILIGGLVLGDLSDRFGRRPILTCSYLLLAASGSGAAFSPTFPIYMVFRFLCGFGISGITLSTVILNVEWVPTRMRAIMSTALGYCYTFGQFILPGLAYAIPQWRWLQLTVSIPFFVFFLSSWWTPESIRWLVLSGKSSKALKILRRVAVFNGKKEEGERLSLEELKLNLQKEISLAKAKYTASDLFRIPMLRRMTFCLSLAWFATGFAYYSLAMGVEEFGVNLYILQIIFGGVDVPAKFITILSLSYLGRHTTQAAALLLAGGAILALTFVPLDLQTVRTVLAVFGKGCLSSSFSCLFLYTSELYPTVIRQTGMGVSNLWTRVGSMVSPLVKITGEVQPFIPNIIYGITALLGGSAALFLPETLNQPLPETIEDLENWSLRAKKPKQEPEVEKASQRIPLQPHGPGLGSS
Put plainly: uptake inhibition in HEK293 cells expressing the transporter. The class given is cell-based. An excerpt: uptake inhibition in HEK293 cells expressing the transporter on OAT3

The target of a further data set is T5, UGT1A1 (Homo sapiens, UniProt P22309).
T5 construct: native enzyme in human liver microsomes
T5 sequence (P22309 26-533): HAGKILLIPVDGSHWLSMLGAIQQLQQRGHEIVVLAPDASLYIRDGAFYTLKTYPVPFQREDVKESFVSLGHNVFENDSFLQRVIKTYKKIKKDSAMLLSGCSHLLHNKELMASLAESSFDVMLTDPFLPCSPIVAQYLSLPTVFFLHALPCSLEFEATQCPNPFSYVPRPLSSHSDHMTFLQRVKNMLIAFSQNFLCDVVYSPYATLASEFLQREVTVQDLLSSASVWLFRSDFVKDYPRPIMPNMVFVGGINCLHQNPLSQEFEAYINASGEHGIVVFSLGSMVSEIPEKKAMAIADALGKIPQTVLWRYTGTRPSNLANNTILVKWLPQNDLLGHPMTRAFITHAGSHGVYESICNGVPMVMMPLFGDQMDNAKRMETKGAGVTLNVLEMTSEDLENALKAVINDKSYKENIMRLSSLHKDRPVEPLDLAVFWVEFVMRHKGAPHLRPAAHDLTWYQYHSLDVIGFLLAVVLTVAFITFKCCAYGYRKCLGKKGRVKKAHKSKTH
The data set can be described thus: glucuronidation inhibition in human liver microsomes. The class given is biochemical. The following applies: substrate beta-estradiol, competitive. An excerpt: glucuronidation inhibition in human liver microsomes on UGT1A1

In data set [1] the target is T6, BCRP (breast cancer resistance protein) (Homo sapiens, UniProt Q9UNQ0).
T6 construct: gene ABCG2; endogenous transporter in Caco-2 cell monolayers
T6 sequence (Q9UNQ0 1-655): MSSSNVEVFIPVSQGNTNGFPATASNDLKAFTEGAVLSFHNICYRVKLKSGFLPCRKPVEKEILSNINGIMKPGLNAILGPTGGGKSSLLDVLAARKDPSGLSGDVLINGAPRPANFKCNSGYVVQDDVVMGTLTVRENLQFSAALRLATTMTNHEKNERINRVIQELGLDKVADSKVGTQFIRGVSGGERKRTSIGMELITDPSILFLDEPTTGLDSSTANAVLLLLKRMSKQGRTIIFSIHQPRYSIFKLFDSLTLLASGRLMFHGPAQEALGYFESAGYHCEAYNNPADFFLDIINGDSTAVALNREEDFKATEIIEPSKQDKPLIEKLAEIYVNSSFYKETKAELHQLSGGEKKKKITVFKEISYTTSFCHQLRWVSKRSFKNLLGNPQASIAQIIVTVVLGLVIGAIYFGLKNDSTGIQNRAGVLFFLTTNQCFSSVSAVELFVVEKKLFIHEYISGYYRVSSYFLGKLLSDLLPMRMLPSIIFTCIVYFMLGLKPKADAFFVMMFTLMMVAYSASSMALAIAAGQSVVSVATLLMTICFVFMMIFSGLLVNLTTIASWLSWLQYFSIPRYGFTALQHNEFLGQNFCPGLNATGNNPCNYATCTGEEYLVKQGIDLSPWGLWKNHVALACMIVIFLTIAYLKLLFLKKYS
The data set can be described thus: transport inhibition in Caco-2 monolayers. The class given is cell-based. An excerpt:
transport inhibition in Caco-2 monolayers on BCRP (breast cancer resistance protein)
For orientation: Caco-2 monolayers are a common model of the intestinal barrier.

T2 sequence (P33261 whole entry): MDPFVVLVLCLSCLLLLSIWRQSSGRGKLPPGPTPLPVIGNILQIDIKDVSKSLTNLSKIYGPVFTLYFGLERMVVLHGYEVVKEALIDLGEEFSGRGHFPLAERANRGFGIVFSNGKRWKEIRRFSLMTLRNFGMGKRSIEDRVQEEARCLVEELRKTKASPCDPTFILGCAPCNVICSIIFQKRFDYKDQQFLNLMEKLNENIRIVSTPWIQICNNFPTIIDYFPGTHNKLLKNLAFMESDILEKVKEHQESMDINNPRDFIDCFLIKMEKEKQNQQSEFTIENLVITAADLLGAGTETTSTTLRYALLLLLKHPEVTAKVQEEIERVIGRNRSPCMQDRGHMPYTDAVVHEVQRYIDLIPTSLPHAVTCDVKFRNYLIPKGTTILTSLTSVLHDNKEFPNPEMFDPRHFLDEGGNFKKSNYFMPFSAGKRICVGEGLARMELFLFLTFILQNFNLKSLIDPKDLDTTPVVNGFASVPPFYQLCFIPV

Take `COC[C@H]1CN(C(=O)[C@]2(F)CN(C3CCCC3)C[C@H]2c2ccc(OC)cc2)C[C@@H]1c1ccc(C(F)(F)F)cc1N1CCC(C(=O)O)CC1` [dersimelagon]: the IC50 against OATP1B3 worked out at 47.1 nM; at CYP2C19, 23.4 µM; at CYP2C9 (read-out: IC50 (μM) / Direct inhibition) it was 9.16 µM; at OAT3, 227 nM; on UGT1A1 (direct inhibition), 1.45 µM; in data set [1] it was 467 nM. Also, the values for the Ki on CYP2C9 (read-out: Parameters / K i) and on UGT1A1 (read-out: Parameters / K i) were 5130 nM and 1190 nM, respectively.
